The values that follow come from patent US20250051805A1, “METHODS” (Commonwealth Scientific and Industrial Research Organisation, priority 2021, published 2025).

Each structure is given as a SMILES string.

The subject of data set [1] is E. coli expressing the A. marina VHPO gene. The data set is described as follows: Bromoform production by E. coli expressing A. marina VHPO with 1,3-dicarbonyl substrates of Table 4. Format: cell-based, Escherichia coli. The settings on record: 1 mM substrate, 100 mM H2O2, 24 hours room temperature; FIG. 8. How it is done: A sample with no additional substrate was also run as a control experiment. Samples (1 mL) were incubated in sealed tubes at room temperature for 24 hours. 10 μL samples from each were withdrawn and added to 1 mL brine to improve phase separation16 and placed in a 20 mL GC vial, which were then sealed with magnetic screw caps (Agilent). The head space of each sample was analyzed by solid phase microextraction (SPME) GC-MS.
To test for bromoform production E. coli cells were resuspended in 1 mL water/100 mL culture volume and 20% v/v of this cell suspension was added to a solution of substrate listed in Table 4 in addition to 100 mM HEPES (pH 7.4), 20 mM KBr, 1 mM Na3VO4, and 100 mM H2O2. Samples (1 mL) were incubated in sealed tubes at room temperature for 24 hours. 10 μL samples from each were withdrawn and added to 1 mL brine in a GC vial before sealing. The head space of each sample was analysed by solid phase microextraction (SPME) GC/MS as above. Bromoform was quantified by comparison with a standard curve prepared from authentic samples of bromoform as described above.

For data set [2] the following is noted: cited from earlier work.
In data set [3] the target is T1, VHPO extracted from Corallina officinalis (Corallina officinalis, UniProt Q8LLW7).
T1 construct: VHPO extracted from Corallina officinalis (Sigma); purchased Sigma; host or cells: extracted from the red alga Corallina officinalis (natural source)
T1 sequence (Q8LLW7 1-598): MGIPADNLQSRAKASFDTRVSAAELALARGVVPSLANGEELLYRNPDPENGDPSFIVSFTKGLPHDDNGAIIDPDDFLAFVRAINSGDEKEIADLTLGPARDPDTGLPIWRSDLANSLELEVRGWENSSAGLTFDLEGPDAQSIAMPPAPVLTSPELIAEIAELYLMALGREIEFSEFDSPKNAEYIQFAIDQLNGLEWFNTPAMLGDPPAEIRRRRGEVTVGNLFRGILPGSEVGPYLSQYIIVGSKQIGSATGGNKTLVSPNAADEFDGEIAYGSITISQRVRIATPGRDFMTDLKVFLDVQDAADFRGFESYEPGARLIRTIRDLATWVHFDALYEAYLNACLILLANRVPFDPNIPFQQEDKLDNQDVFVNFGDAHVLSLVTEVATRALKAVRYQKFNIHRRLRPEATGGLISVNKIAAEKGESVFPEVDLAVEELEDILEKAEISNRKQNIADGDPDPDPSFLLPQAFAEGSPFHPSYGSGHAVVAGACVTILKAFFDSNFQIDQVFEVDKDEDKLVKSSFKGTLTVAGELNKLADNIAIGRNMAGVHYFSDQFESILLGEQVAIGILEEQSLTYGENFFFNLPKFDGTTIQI
The data set is described as follows: Bromoform synthesis by extracted enzyme. The settings on record: 0.1 U VHPO, 10 mM substrate, 50 mM KBr, 50 mM H2O2. Type of data set: biochemical. How it is done: The whole reaction (100 μL) was transferred to a GC-Headspace vial and left at room temperature until analysis by SPME-GCMS as before. Relative bromoform levels were assessed as described above.

Data set [4] relates to E. coli transformed to express VHPO. The data set is described as follows: Bromoform biosynthesis in growing E. coli cultures expressing VHPO with inhibitors or oleic acid. Type of data set: cell-based, Escherichia coli. The settings on record: for bromoform observed in culture: 0.5 g/L tannic acid together with 10 mM 3-amino-1,2,4-triazole, 18 hours; for production of bromoform in culture: 0.1% oleic acid, 1% tergitol, with amino-triazole to inhibit catalase. How it is done: VHPO was expressed in E. coli isolate BL21 (DE3) as described above. Alongside IPTG (0.2 mM) the culture was also supplemented with 50 mM KBr, 1 mM Na3VO4, 10 mM 3-amino,1,2,4-triazole, and 0.5 g/L tannic acid or 0.1% oleic acid (emulsified with 1% tergitol (Merck, Ma USA)). Typically, 10 mL LB cultures were grown in 50 mL tubes with the lids closed. Vented tubes led to the loss of bromoform by evaporation. Cells were harvested by centrifugation and resuspended in 1 mL of brine (6 M NaCl), transferred into 20 mL headspace GC vials and sealed with a magnetic screw cap before analysis by SPME-GC-MS.
This strategy utilizes tannic acid to inhibit FabG to promote the accumulation acetoacyl-acyl-carrier-proteins (Wu et al., 2010), alongside 3-amino-1,2,4-triazol to inhibit catalase and promote the accumulation of H2O2(Meir and Yagil, 1985). FabG is β-ketoacyl-ACP reductase [EC 1.1.1.100], an enzyme that catalyses the reduction of acetoacyl-acyl carrier proteins during fatty acid synthesis. Catalase consumes the intracellular H2O2 which is required for VHPO activity. Both inhibitors were added to cultures E. coli transformed to express VHPO upon induction with IPTG. The VHPO gene from the marine cyanobacterium Acaryochloris marina MBIC110174 was synthesized by Epoch Life Science Inc. (Tx, USA) using the published gene sequence (GenBank Accession CP000828-nucleotides 5020736-5018817). This gene sequence was codon optimized for E. coli expression and cloned into expression vector pACYCDuet1 under the regulatory control of a LacI repressor and T7 promoter and terminator sequences. Cell growth was allowed to continue for 18 hours in the presence of these molecules with the addition of KBr and Na3VO4, before harvesting the cells by centrifugation and analysis of bromoform levels.
Alongside IPTG (0.2 mM) the culture was also supplemented with 50 mM KBr, 1 mM Na3VO4, 10 mM 3-amino,1,2,4-triazole, and 0.5 g/L tannic acid or 0.1% oleic acid (emulsified with 1% tergitol (Merck, Ma USA)). Typically, 10 mL LB cultures were grown in 50 mL tubes with the lids closed. Vented tubes led to the loss of bromoform by evaporation. Cells were harvested by centrifugation and resuspended in 1 mL of brine (6 M NaCl), transferred into 20 mL headspace GC vials and sealed with a magnetic screw cap before analysis by SPME-GC-MS.

For data set [5], the system named is S. cerevisiae BY4741 transformed with pRS-ePST1-AmVHPO. The data set is described as follows: Bromoform synthesis by S. cerevisiae with peroxisome-targeted VHPO in SDUGGO media. The settings on record: 0.1% oleic acid together with 3-amino-1,2,4-triazol. Type of data set: cell-based, Saccharomyces cerevisiae. On the procedure:
10 mL seed cultures of were inoculated with a single colony of BY4741 transformed with pRS-ePST1-AmVHPO in SD and grown at 220 rpm, 30° C. overnight. These were used to inoculate 10 mL cultures of SDUGGO media (uracil (0.67% yeast nitrogenous base without amino acids, 0.192% Merck yeast synthetic dropout medium supplement without uracil, 10% glycerol, 0.1% glucose, 100 mM KBr, 1 mM Na3VO4, 100 mM MOPS (pH 6.5), 0.1% oleic acid emulsified in 1% tergitol) at an initial OD600 of 2.0, and incubated for a further 24 hours at 220 rpm, 30° C. As with E. coli, samples were grown in 50 mL tubes with the lids closed to minimize the loss of bromoform by evaporation. Cells were harvested by centrifugation and resuspended in 1 mL of brine (6 M NaCl), transferred into 20 mL headspace GC vials and sealed with a magnetic screw cap before analysis by SPME-GC-MS.
With this plasmid in hand, the media was adapted to allow for maximum flux through beta-oxidation, incorporating both oleic acid to induce β-oxidation and glycerol as a non-repressing carbon source. A small amount of glucose (0.1%) was also included to stimulate initial cell growth, alongside Mops buffer (pH 6.5), which improved bromoform production compared with unbuffered cultures. KBr and Na3VO4 were also added to allow for VHPO activity.

Data set [6] relates to E. coli expressing the A. marina VHPO gene. The experiment in a line: Time course of bromoform production from acetylacetone by the E. coli cell suspension with repeated H2O2 addition. Type of data set: cell-based, Escherichia coli. On the procedure: It was hypothesized that with sufficient hydrogen peroxide supply full conversion to bromoform could be achieved. To this end an additional reaction was set up with 10% E. coli cell suspension 100 mM HEPES (pH 7.4), 100 mM KBr, 1 mM Na3VO4, and 400 mM H2O2 added to initiate the reaction, then again after 2 and 4 hours. 10 μL of this reaction was sampled at 0, 20, 60, 120, 180, 240, and 360 minutes, the reaction was stopped by addition of 1 mL of ice cold brine and samples were stored in sealed GC vials at −20° C. before analysis by SPME-GC/MS as above. Bromoform was quantified by comparison with a standard curve prepared from authentic samples of bromoform, added to control samples (identical to the reaction, except containing no bromide), to account for matrix effects. The time course and standard curve is shown below in FIG. 7.

Data set [7] has the same test system. The experiment in a line: Bromoform production by E. coli cells expressing A. marina VHPO with Table 3 substrates (SPME-GC/MS). Particulars: 1 mM substrate, 50 mM H2O2, 24 hours room temperature; compared with the other samples of Table 3. Format: cell-based, Escherichia coli. How it is done: Transformed E. coli were then grown in LB with 30 μg/mL chloramphenicol at 37° C. 220 rpm, until OD600 ˜0.6. IPTG 0.2 mM was then added and the cultures transferred to 28° C. with shaking at 220 rpm for a further 18 hours. Cells were harvested by centrifugation and kept at −20° C. before further use.
To test for bromoform production E. coli cells were resuspended in 1 mL water/100 mL culture volume and 20% v/v of this cell suspension was added to a solution of substrate listed below in Table 3, 100 mM HEPES (pH 7.4), 20 mM KBr, 1 mM Na3VO4, and 50 mM H2O2. Samples (100 μL) were incubated in sealed GC vials at room temperature for 24 hours. The head space of each sample was analysed by solid phase microextraction (SPME) GC/MS using a 7890A series gas chromatograph, a 5975C inert XL MSD mass selective detector and a MPS2 Gerstel multipurpose autosampler. Bromoform was identified in samples by comparison of the retention time with an authentic standard (Sigma, USA) and by mass spectral matching using the NIST/EPA/NIH Mass Spectral Library (version 2014). Relative bromoform quantities were measured by integration of the m/z=250 signal in extracted ion chromatograms generated using Agilent Mass Hunter software (version 10.0).

In the case of `CCOC(=O)CC(C)=O` [ethyl acetoacetate], the bromoform production result in data set [1] was “increase in bromoform production”. The “pKa (H2O solvent reference)” value in data set [2] is 10.7 (Brodwell, personal.
Take `CC1(C)CC(=O)CC(=O)C1` [5,5-dimethyl-1,3-cyclohexanedione]: the results for the “increase in bromoform concentration relative to acetone” value in data set [3] (listed as dimedone) and in data set [3] (listed as dimidone) were 51 fold and “up to 50 fold”, respectively. The bromoform production result in data set [1] was “increase in bromoform production”. Further, the “pKa (H2O solvent reference)” value in data set [2] is given as 5.2 (Brodwell, personal.
On to `O=C(OC[C@H]1O[C@@H](OC(=O)c2cc(O)c(O)c(OC(=O)c3cc(O)c(O)c(O)c3)c2)[C@H](OC(=O)c2cc(O)c(O)c(OC(=O)c3cc(O)c(O)c(O)c3)c2)[C@@H](OC(=O)c2cc(O)c(O)c(OC(=O)c3cc(O)c(O)c(O)c3)c2)[C@@H]1OC(=O)c1cc(O)c(O)c(OC(=O)c2cc(O)c(O)c(O)c2)c1)c1cc(O)c(O)c(OC(=O)c2cc(O)c(O)c(O)c2)c1` [tannic acid], for which, in data set [4], the “bromoform observed in culture” value is “only observed when both inhibitors were added”.
Take `Nc1nc[nH]n1` [3-amino-1,2,4-triazol]: the “bromoform detected in the cell pellet” value in data set [5] was “only when both oleic acid and 3-amino-1,2,4-triazol were added”. For the same molecule, in data set [4], the “production of bromoform in culture” value is “trace amounts” and the “bromoform observed in culture” value was “only observed when both inhibitors were added”.
In the case of `CC(=O)CC(C)=O` [acetylacetone], the bromoform production entry in data set [1] is “increase in bromoform production”. In addition, the “amount of bromoform synthesised” value in data set [6] (400 mM H2O2 added at start and again after 2 and 4 hours) is given as 5 mg/mL. Also, the “conversion to bromoform (yield based on acetylacetone)” value in data set [6] (after three hours, 400 mM H2O2 added at start and again after 2 and 4 hours) came to 97%. In data set [6] (initial phase of the reaction), the “part of acetylacetone converted rapidly to bromoform” value is reported as “Approximately half”. In data set [7], the “increase in bromoform production” value worked out at 10 fold.
`CCCCCCCC/C=C\CCCCCCCC(=O)O` [oleic acid]: in data set [5], the “bromoform detected in the cell pellet” value was “only when both oleic acid and 3-amino-1,2,4-triazol were added”. Moreover, in data set [4], the “production of bromoform in culture” value is “trace amounts”.
Take `CCC(=O)CC(=O)CC` [3,5-heptanedione]: the bromoform production result in data set [1] is given as “increase in bromoform production”.
